#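 Cells were grown in 96-well plates and exposed to each compound for 48 hours at five concentrations; endpoints were interpolated linearly between bracketing concentrations, or set to the highest concentration if not reached. GI50: concentration for 50% inhibition of growth.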 Calls of active or inactive are those of the source. Rule as the data show it: active = GI50 up to about 1.1 µM and inactive = higher.
# What was measured:
# Assay in all cases: NCI anticancer screen, dose series, 48 h
# COLO 205 = test system: COLO 205
# HL-60 = test system: HL-60
# HOP-62 = test system: HOP-62
# K562 = test system: K562
# M14 = test system: M14
# MCF7 = test system: MCF7
# MDA-N = test system: MDA-N
# MOLT-4 = test system: MOLT-4
# NCI-H226 = test system: NCI-H226
# OVCAR-3 = test system: OVCAR-3
# OVCAR-4 = test system: OVCAR-4
# OVCAR-5 = test system: OVCAR-5
# SF-295 = test system: SF-295
# SK-MEL-5 = test system: SK-MEL-5
# SNB-19 = test system: SNB-19
# SR = test system: SR
# T47D = test system: T47D
# U-251 = test system: U-251
# HCC 2998 = test system: HCC 2998
# KM12 = test system: KM12
Structure (SMILES),GI50 (COLO 205),GI50 (HL-60),GI50 (HOP-62),GI50 (K562),GI50 (M14),GI50 (MCF7),GI50 (MDA-N),GI50 (MOLT-4),GI50 (NCI-H226),GI50 (OVCAR-3),GI50 (OVCAR-4),GI50 (OVCAR-5),GI50 (SF-295),GI50 (SK-MEL-5),GI50 (SNB-19),GI50 (SR),GI50 (T47D),GI50 (U-251),GI50 (HCC 2998),GI50 (KM12)
S=C(NC/C(Br)=C/Br)Nc1cccc2ccccc12,18.5 µM (inactive),12.9 µM (inactive),30.3 µM (inactive),11.7 µM (inactive),16.8 µM (inactive),20 µM (inactive),25.4 µM (inactive),17.8 µM (inactive),26.7 µM (inactive),24 µM (inactive),30.3 µM (inactive),33.6 µM (inactive),33.3 µM (inactive),16.4 µM (inactive),34 µM (inactive),15.4 µM (inactive),40.4 µM (inactive),30.3 µM (inactive),,
CC(=O)OCC1OC(Oc2cc(C)c(O)cc2C/C=C(\C)CC/C=C(\C)C[C@@H](C=C(C)C)OC(C)=O)C(O)C(OC(C)=O)C1OC(C)=O (stereo partly specified),9.38 µM (inactive),9.79 µM (inactive),28.4 µM (inactive),11.6 µM (inactive),23.3 µM (inactive),16 µM (inactive),25.2 µM (inactive),8.26 µM (inactive),,13.4 µM (inactive),23.6 µM (inactive),> 50 µM (inactive),22.2 µM (inactive),9.14 µM (inactive),> 50 µM (inactive),,10.1 µM (inactive),25.5 µM (inactive),16.9 µM (inactive),15.7 µM (inactive)
COC(=O)Nc1nc2cc(S(=O)(=O)Nc3ccccn3)ccc2[nH]1,32.7 µM (inactive),10.8 µM (inactive),73.3 µM (inactive),25.7 µM (inactive),78.9 µM (inactive),28.6 µM (inactive),20.7 µM (inactive),25.5 µM (inactive),36.3 µM (inactive),32.4 µM (inactive),54.1 µM (inactive),> 100 µM (inactive),49.7 µM (inactive),42.1 µM (inactive),64.4 µM (inactive),21.1 µM (inactive),44.2 µM (inactive),67.5 µM (inactive),,32.1 µM (inactive)
COc1cc(S(=O)(=O)Nc2nc(-c3ccc(N4C(=O)/C(=C/c5ccccc5[N+](=O)[O-])N=C4c4ccccc4)cc3)cs2)ccc1Cl,> 100 µM (inactive),44.3 µM (inactive),87.1 µM (inactive),61.5 µM (inactive),> 100 µM (inactive),34.6 µM (inactive),> 100 µM (inactive),37.7 µM (inactive),> 100 µM (inactive),29.5 µM (inactive),> 100 µM (inactive),> 100 µM (inactive),> 100 µM (inactive),48.9 µM (inactive),89.9 µM (inactive),34.3 µM (inactive),55.5 µM (inactive),46.6 µM (inactive),,73.1 µM (inactive)
O=C(OCc1ccccc1)N1CCNCCNCCN(C(=O)OCc2ccccc2)CCNCC1,13.6 µM (inactive),8.2 µM (inactive),36.7 µM (inactive),13 µM (inactive),16.6 µM (inactive),17.8 µM (inactive),16.2 µM (inactive),16.7 µM (inactive),> 100 µM (inactive),56.9 µM (inactive),41 µM (inactive),33.3 µM (inactive),16.4 µM (inactive),14.1 µM (inactive),68.5 µM (inactive),14.1 µM (inactive),17.1 µM (inactive),17.9 µM (inactive),,29.6 µM (inactive)
OC1CCCN(C2(c3cccs3)CCCCC2)C1 (stereo unspecified),> 100 µM (inactive),74.6 µM (inactive),> 100 µM (inactive),> 100 µM (inactive),,> 100 µM (inactive),> 100 µM (inactive),> 100 µM (inactive),,> 100 µM (inactive),> 100 µM (inactive),> 100 µM (inactive),> 100 µM (inactive),> 100 µM (inactive),,,> 100 µM (inactive),> 100 µM (inactive),> 100 µM (inactive),> 100 µM (inactive)
Cn1c(=O)n(-c2c3ccccc3c(Cl)c3ccccc23)n(C(C)(C)C)c1=O,> 100 µM (inactive),> 100 µM (inactive),38.4 µM (inactive),> 100 µM (inactive),> 100 µM (inactive),> 100 µM (inactive),> 100 µM (inactive),> 100 µM (inactive),44.6 µM (inactive),> 100 µM (inactive),,> 100 µM (inactive),> 100 µM (inactive),> 100 µM (inactive),> 100 µM (inactive),,> 100 µM (inactive),> 100 µM (inactive),> 100 µM (inactive),> 100 µM (inactive)
O=C(NNCc1ccccc1O)c1ccccc1O,7.93 µM (inactive),0.495 µM (active),7.52 µM (inactive),3.3 µM (inactive),9.16 µM (inactive),12.5 µM (inactive),7.57 µM (inactive),1.75 µM (inactive),24 µM (inactive),0.766 µM (active),26 µM (inactive),3.59 µM (inactive),2.51 µM (inactive),3.06 µM (inactive),36.6 µM (inactive),,3.48 µM (inactive),5.75 µM (inactive),4.01 µM (inactive),8.91 µM (inactive)
